# Read-outs that look alike come from different tables or passages of the source.
# Assays:
# [1] = tested on: S. aureus Met-R multiresistant strains; assay: MIC determination (NCCLS broth microdilution), methicillin-resistant multiresistant S. aureus strains; assay type: cell-based, Staphylococcus aureus; conditions: for % susceptible at breakpoint: NCCLS (1999) breakpoints; for MIC: antibiotype Oxa, Ery
# In short: (§1)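 NCCLS broth microdilution in cation-supplemented Mueller-Hinton broth, final inoculum 5×10^5 from exponential-phase bacteria; 2% NaCl added for methicillin testing. MIC taken as lowest concentration preventing visible growth after 18–24 h at 37 °C, with S. aureus ATCC 29213 as QC strain.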
# [2] = tested on: S. aureus vancomycin-intermediates (VISA) Met-R strains; assay: MIC determination (NCCLS broth microdilution), VISA Met-R strains; assay type: cell-based, Staphylococcus aureus; conditions: for MIC: antibiotype Oxa, Cip, Clin, Ery; for MIC Range / % susceptible at breakpoint: VISA (2) Met-R; for % susceptible at breakpoint: NCCLS (1999) breakpoints
# In short: as §1
# Staphylococci = conditions: toward strains of Staphylococci; Kayser et al. 1974; cited from earlier work
compound,measurement,setting,value
"CS(=O)(=O)c1ccc([C@@H](O)[C@@H](CO)NC(=O)C(Cl)Cl)cc1 [Thiamphenicol, thiamphenicol]",% susceptible at breakpoint,[1]; S. aureus (50) Met-R,66%
same,MIC,"[1]; Staphylococcus aureus, Strain 1, Cip, Clin, Gm, read-out: MIC",8 µg/mL
same,MIC,"[1]; Staphylococcus aureus, Strain 2, Clin, Fos, read-out: MIC",> 64 µg/mL
same,MIC,"[1]; Staphylococcus aureus, Strain 3, Cip, Clin, Gm, read-out: MIC",16 µg/mL
same,MIC,"[1]; Staphylococcus aureus, Strain 4, Cip, Gm, read-out: MIC",8 µg/mL
same,MIC,"[1]; Staphylococcus aureus, Strain 5, Cip, Clin, read-out: MIC",> 64 µg/mL
same,MIC,"[1]; Staphylococcus aureus, Strain 6, Clin, Gm, read-out: MIC",> 64 µg/mL
same,MIC,"[1]; Staphylococcus aureus, Strain 7, Cip, Gm, read-out: MIC",16 µg/mL
same,MIC,"[1]; Staphylococcus aureus, Strain 8, Cip, Clin, read-out: MIC",> 64 µg/mL
same,MIC,"[1]; Staphylococcus aureus, Strain 9, Cip, Clin, Gm, read-out: MIC",8 µg/mL
same,MIC,"[1]; Staphylococcus aureus, Strain 10, Cip, Clin, Gm, read-out: MIC",4 µg/mL
same,MIC,"[1]; Staphylococcus aureus, Strain 11, Clin, Rif, read-out: MIC",> 64 µg/mL
same,MIC,"[1]; Staphylococcus aureus, Strain 12, Cip, Clin, read-out: MIC",> 64 µg/mL
same,MIC,"[1]; Staphylococcus aureus, Strain 13, Cip, Clin, read-out: MIC",16 µg/mL
same,MIC,"[1]; Staphylococcus aureus, Strain 14, Clin, Cip, read-out: MIC",16 µg/mL
same,MIC,"[1]; Staphylococcus aureus, Strain 15, Cip, Clin, Gm, read-out: MIC",16 µg/mL
same,MIC,"[1]; Staphylococcus aureus, Strain 16, Cip, Clin, read-out: MIC",8 µg/mL
same,MIC,"[1]; Staphylococcus aureus, Strain 17, Cip, Clin, read-out: MIC",16 µg/mL
same,MIC,"[1]; Staphylococcus aureus, Strain 18, Cip, Clin, Gm, read-out: MIC",> 64 µg/mL
same,MIC,"[1]; Staphylococcus aureus, Strain 19, Cip, Clin, Gm, read-out: MIC",16 µg/mL
same,MIC,"[1]; Staphylococcus aureus, Strain 20, Cip, Clin, Gm, read-out: MIC",> 64 µg/mL
same,MIC,"[1]; Staphylococcus aureus, Strain 21, Cip, Clin, Gm, read-out: MIC",> 64 µg/mL
same,MIC,"[1]; Staphylococcus aureus, Strain 22, Cip, Clin, read-out: MIC",16 µg/mL
same,MIC,"[1]; Staphylococcus aureus, Strain 23, Cip, Clin, Gm, read-out: MIC",> 64 µg/mL
same,MIC,"[1]; Staphylococcus aureus, Strain 24, Cip, Clin, Gm, read-out: MIC",> 64 µg/mL
same,MIC,"[1]; Staphylococcus aureus, Strain 25, Cip, Clin, Gm, read-out: MIC",16 µg/mL
same,MIC,"[1]; Staphylococcus aureus, Strain 26, Cip, Clin, Fos, Gm, read-out: MIC",16 µg/mL
same,MIC,"[1]; Staphylococcus aureus, Strain 27, Cip, Clin, Fos, Gm, read-out: MIC",16 µg/mL
same,MIC,"[1]; Staphylococcus aureus, Strain 28, Cip, Clin, Gm, read-out: MIC",> 64 µg/mL
same,MIC,"[1]; Staphylococcus aureus, Strain 29, Clin, Fos, read-out: MIC",16 µg/mL
same,MIC,"[1]; Staphylococcus aureus, Strain 30, Cip, Clin, Gm, SXT, Dox, read-out: MIC",16 µg/mL
same,MIC,"[1]; Staphylococcus aureus, Strain 31, Cip, Clin, Fox, Gm, read-out: MIC",16 µg/mL
same,MIC,"[1]; Staphylococcus aureus, Strain 32, Cip, Clin, Gm, SXT, Rif, read-out: MIC",> 64 µg/mL
same,MIC,"[1]; Staphylococcus aureus, Strain 33, Cip, Clin, Gm, read-out: MIC",> 64 µg/mL
same,MIC,"[1]; Staphylococcus aureus, Strain 34, Cip, Clin, Gm, read-out: MIC",> 64 µg/mL
same,MIC,"[1]; Staphylococcus aureus, Strain 35, Cip, Clin, Gm, read-out: MIC",16 µg/mL
same,MIC,"[1]; Staphylococcus aureus, Strain 36, Cip, Clin, Fos, read-out: MIC",16 µg/mL
same,MIC,"[1]; Staphylococcus aureus, Strain 37, Cip, Clin, Fos, Gm, read-out: MIC",16 µg/mL
same,MIC,"[1]; Staphylococcus aureus, Strain 38, Cip, Gm, read-out: MIC",8 µg/mL
same,MIC,"[1]; Staphylococcus aureus, Strain 39, Cip, Clin, Fos, Gm, read-out: MIC",16 µg/mL
same,MIC,"[1]; Staphylococcus aureus, Strain 40, Cip, Clin, Gm, read-out: MIC",16 µg/mL
same,MIC,"[1]; Staphylococcus aureus, Strain 41, Cip, Clin, read-out: MIC",16 µg/mL
same,MIC,"[1]; Staphylococcus aureus, Strain 42, Cip, Clin, Gm, read-out: MIC",8 µg/mL
same,MIC,"[1]; Staphylococcus aureus, Strain 43, Cip, Clin, Gm, read-out: MIC",16 µg/mL
same,MIC,"[1]; Staphylococcus aureus, Strain 44, Cip, Clin, Gm, Rif, Dox, read-out: MIC",16 µg/mL
same,MIC,"[1]; Staphylococcus aureus, Strain 45, Cip, Clin, Gm, Rif, Dox, Fos, read-out: MIC",16 µg/mL
same,MIC,"[1]; Staphylococcus aureus, Strain 46, Clin, Fos, read-out: MIC",16 µg/mL
same,MIC,"[1]; Staphylococcus aureus, Strain 47, Cip, Clin, Gm, read-out: MIC",8 µg/mL
same,MIC,"[1]; Staphylococcus aureus, Strain 48, Cip, Clin, read-out: MIC",> 64 µg/mL
same,MIC,"[1]; Staphylococcus aureus, Strain 49, Cip, Gm, read-out: MIC",16 µg/mL
same,MIC,"[1]; Staphylococcus aureus, Strain 50, Cip, Clin, Gm, Rif, Dox, read-out: MIC",> 64 µg/mL
same,MIC50,"[1]; Staphylococcus aureus, S. aureus (50) Met-R, read-out: MIC 50%",16 µg/mL
same,MIC90,"[1]; Staphylococcus aureus, S. aureus (50) Met-R, read-out: MIC 90%",> 64 µg/mL
same,activity (MIC) compared with cloramphenicol,"[1]; VISA and multiresistant Staphylococcus aureus strains, in vitro",comparable to that as of cloramphenicol
same,MIC,"[2]; Staphylococcus aureus, Strain 51 VISA, read-out: MIC",16 µg/mL
same,MIC,[2]; Strain 52 VISA,16 µg/mL
same,MIC Range,[2],16 µg/mL
same,% susceptible at breakpoint,[2],100%
same,in vitro activity relative to chloramphenicol (times less active),Staphylococci,2 to 4 times
teicoplanine,MIC 50%,[1]; S. aureus (50) Met-R,"0,5 mg/l"
same,MIC 90%,[1]; S. aureus (50) Met-R,1 µg/mL
same,MIC Range,[1]; S. aureus (50) Met-R,"0,12-2 mg/l"
same,% susceptible at breakpoint,[1]; S. aureus (50) Met-R,100%
same,MIC,"[1]; Strain 1, Cip, Clin, Gm",0.25 µg/mL
same,MIC,"[1]; Strain 2, Clin, Fos",0.5 µg/mL
same,MIC,"[1]; Strain 3, Cip, Clin, Gm",1 µg/mL
same,MIC,"[1]; Strain 4, Cip, Gm",0.5 µg/mL
same,MIC,"[1]; Strain 5, Cip, Clin",1 µg/mL
same,MIC,"[1]; Strain 6, Clin, Gm",1 µg/mL
same,MIC,"[1]; Strain 7, Cip, Gm",0.25 µg/mL
same,MIC,"[1]; Strain 8, Cip, Clin",0.25 µg/mL
same,MIC,"[1]; Strain 9, Cip, Clin, Gm",0.25 µg/mL
same,MIC,"[1]; Strain 10, Cip, Clin, Gm",0.25 µg/mL
same,MIC,"[1]; Strain 11, Clin, Rif",1 µg/mL
same,MIC,"[1]; Strain 12, Cip, Clin",1 µg/mL
same,MIC,"[1]; Strain 13, Cip, Clin",1 µg/mL
same,MIC,"[1]; Strain 14, Clin, Cip",0.5 µg/mL
same,MIC,"[1]; Strain 15, Cip, Clin, Gm",0.25 µg/mL
same,MIC,"[1]; Strain 16, Cip, Clin",1 µg/mL
same,MIC,"[1]; Strain 17, Cip, Clin",0.25 µg/mL
same,MIC,"[1]; Strain 18, Cip, Clin, Gm",1 µg/mL
same,MIC,"[1]; Strain 19, Cip, Clin, Gm",1 µg/mL
same,MIC,"[1]; Strain 20, Cip, Clin, Gm",0.25 µg/mL
same,MIC,"[1]; Strain 21, Cip, Clin, Gm",0.5 µg/mL
same,MIC,"[1]; Strain 22, Cip, Clin",0.25 µg/mL
same,MIC,"[1]; Strain 23, Cip, Clin, Gm",0.5 µg/mL
same,MIC,"[1]; Strain 24, Cip, Clin, Gm",0.5 µg/mL
same,MIC,"[1]; Strain 25, Cip, Clin, Gm",1 µg/mL
same,MIC,"[1]; Strain 26, Cip, Clin, Fos, Gm",1 µg/mL
same,MIC,"[1]; Strain 27, Cip, Clin, Fos, Gm",1 µg/mL
same,MIC,"[1]; Strain 28, Cip, Clin, Gm",0.5 µg/mL
same,MIC,"[1]; Strain 29, Clin, Fos",0.5 µg/mL
same,MIC,"[1]; Strain 30, Cip, Clin, Gm, SXT, Dox",1 µg/mL
same,MIC,"[1]; Strain 31, Cip, Clin, Fox, Gm",0.5 µg/mL
same,MIC,"[1]; Strain 32, Cip, Clin, Gm, SXT, Rif",0.5 µg/mL
same,MIC,"[1]; Strain 33, Cip, Clin, Gm",0.5 µg/mL
same,MIC,"[1]; Strain 34, Cip, Clin, Gm",0.25 µg/mL
same,MIC,"[1]; Strain 35, Cip, Clin, Gm",0.5 µg/mL
same,MIC,"[1]; Strain 36, Cip, Clin, Fos",1 µg/mL
same,MIC,"[1]; Strain 37, Cip, Clin, Fos, Gm",0.25 µg/mL
same,MIC,"[1]; Strain 38, Cip, Gm",0.25 µg/mL
same,MIC,"[1]; Strain 39, Cip, Clin, Fos, Gm",0.25 µg/mL
same,MIC,"[1]; Strain 40, Cip, Clin, Gm",0.25 µg/mL
same,MIC,"[1]; Strain 41, Cip, Clin",0.25 µg/mL
same,MIC,"[1]; Strain 42, Cip, Clin, Gm",0.12 µg/mL
same,MIC,"[1]; Strain 43, Cip, Clin, Gm",0.5 µg/mL
same,MIC,"[1]; Strain 44, Cip, Clin, Gm, Rif, Dox",1 µg/mL
same,MIC,"[1]; Strain 45, Cip, Clin, Gm, Rif, Dox, Fos",0.5 µg/mL
same,MIC,"[1]; Strain 46, Clin, Fos",0.25 µg/mL
same,MIC,"[1]; Strain 47, Cip, Clin, Gm",0.12 µg/mL
same,MIC,"[1]; Strain 48, Cip, Clin",2 µg/mL
same,MIC,"[1]; Strain 49, Cip, Gm",0.5 µg/mL
same,MIC,"[1]; Strain 50, Cip, Clin, Gm, Rif, Dox",0.5 µg/mL
same,MIC,[2]; Strain 51 VISA,8 µg/mL
same,MIC,[2]; Strain 52 VISA,8 µg/mL
same,MIC Range,[2],8 µg/mL
same,% susceptible at breakpoint,[2],100%

# Reference: patent US6589993B2, “Treating vancomycin-intermediates and multiresistant staphylococci infection with thiamphenicol or a salt thereof” (Zambon Group S.p.A., priority 2000, dated 2003)
